The source made the active and inactive calls.
Columns and labels:
[1] = molecular target: Transitional endoplasmic reticulum ATPase (Homo sapiens, UniProt P55072); experiment: p97 ATPase inhibitors, dose response, biochemical (AID 1534)
[2] = molecular target: Transitional endoplasmic reticulum ATPase (Homo sapiens, UniProt P55072, C522A); experiment: C522A mutant p97 ATPase inhibitors, dose response, counter-screen for p97 inhibitor project, biochemical, luminescence (AID 1544)
[3] = molecular target: T1, Alkaline phosphatase, tissue-nonspecific isozyme (Homo sapiens, UniProt P05186)
T1 sequence (P05186 whole entry): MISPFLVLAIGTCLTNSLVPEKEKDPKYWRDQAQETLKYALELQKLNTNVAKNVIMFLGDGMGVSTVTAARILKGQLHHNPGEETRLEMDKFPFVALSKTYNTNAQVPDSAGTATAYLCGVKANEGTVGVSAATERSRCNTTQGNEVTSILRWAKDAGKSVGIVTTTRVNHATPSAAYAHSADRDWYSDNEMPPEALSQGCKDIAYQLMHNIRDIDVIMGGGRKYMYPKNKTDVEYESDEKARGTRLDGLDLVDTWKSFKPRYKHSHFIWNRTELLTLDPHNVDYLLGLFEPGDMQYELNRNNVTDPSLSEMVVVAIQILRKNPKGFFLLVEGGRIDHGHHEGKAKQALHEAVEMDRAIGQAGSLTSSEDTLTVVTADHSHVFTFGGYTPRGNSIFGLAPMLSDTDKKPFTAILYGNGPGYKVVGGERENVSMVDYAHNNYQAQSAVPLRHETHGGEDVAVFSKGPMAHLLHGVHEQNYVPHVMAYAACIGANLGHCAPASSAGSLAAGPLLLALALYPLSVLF

[4] = test system: H9c2; experiment: cells; format: functional, cell-based; conditions: Rattus norvegicus, H9c2, Myocardium;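 further: confirmatory concentration-response retest of ultra-high-throughput screening hits for modulation of myocardial damage; cell death induced by hydrogen peroxide oxidative stress; compound pretreatment for 60 min then peroxide exposure for 2 h; potency is for protecting the cells against peroxide damage rather than for killing them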
[5] = A Cell Based Secondary Assay To Explore Cytotoxicity of Compounds that Sensitize Mycobacterium Tuberculosis to Beta-Lactam Antibiotics.; format: functional
[6] = test system: Staphylococcus aureus; experiment: Inhibitors of Bacterial Quorum Sensing Structure Activity Relationship (SAR) Analysis: Dose Response Assay. [Related pubchem assays: 700, 527 ]; format: functional, organism-based
[7] = molecular target: Serine/threonine-protein phosphatase (Homo sapiens, UniProt Q9BPW0); experiment: Counterscreen for inhibitors of PP1: fluorescence-based biochemical high throughput dose response assay to identify inhibitors of Protein Phosphatase 5 (PP5). [Related pubchem assays: 2034 (Summary (PP5 inhibitors)), 1987 (PP5 inhibitors in singlate), 2235 (PP1 inhibitors in singlate)]
[8] = molecular target: Ras and Rab interactor 1/Tyrosine-protein kinase ABL1 (Homo sapiens, UniProt P00519+Q13671); format: functional;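 further: biochemical TR-FRET dose-response test measuring inhibition of binding between Rin1 and Abl proteins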
[9] = molecular target: Serine/threonine-protein phosphatase PP1-alpha catalytic subunit (Homo sapiens, UniProt P62136); experiment: PP1 phosphatase inhibitors, dose response, biochemical, fluorescence (AID 2403);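 further: phosphatase turnover of OMFP into fluorescent 3-O-methylfluorescein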
[10] = molecular target: Heat shock protein HSP 90-alpha (Homo sapiens, UniProt P07900); format: functional, organism-based
[11] = test system: Vero; experiment: Vero cell cytotoxicity, cytotoxicity control for flavivirus capping enzyme inhibitors (AID 588742); format: functional; conditions: Chlorocebus sabaeus
[12] = NIH-3T3 fibroblast cytotoxicity, dose response, cytotoxicity control, cell-based, fluorescence, Alamar Blue, secondary assay (AID 2327); format: functional;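 further: NIH-3T3 mouse fibroblasts cultured with fluconazole at 8 µg/mL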
[13] = molecular target: Genome polyprotein (dengue virus type 2, UniProt P29990); experiment: Dengue-2 NS5 methyltransferase inhibitors, primary screen, biochemical, confirmation dose response (AID 588689); format: functional
[14] = molecular target: T2, Polyadenylate-binding protein 1 (Homo sapiens, UniProt P11940); experiment: PABP1 MLLE–PAM2 binding inhibitor potency, dose response, biochemical, fluorescence polarization, FITC-PAM2 peptide (AID 602259); format: functional; conditions: read-out: IC50_Mean
[15] = molecular target: T2, Polyadenylate-binding protein 1; experiment: PABP1 MLLE–PAM2 interaction inhibitors, dose response, miRNA deadenylation inhibitor project, biochemical, fluorescence polarization, Cy5-PAM2 peptide, secondary (AID 602260); format: functional; conditions: read-out: IC50_Mean
[16] = C. albicans growth with fluconazole, confirmation, fluorescence, retest (AID 2467); format: functional, cell-based
[17] = molecular target: Acyl-homoserine lactone acylase PvdQ (Pseudomonas aeruginosa (strain LESB58), UniProt Q9I194); experiment: P. aeruginosa PvdQ acylase inhibitors, dose response, biochemical, fluorescence, plate reader and imaging, cherry-picks (AID 493231)
[18] = molecular target: Aminopeptidase N (Plasmodium falciparum FcB1/Columbia, UniProt O96935); experiment: P. falciparum M1AAP inhibitors, biochemical, fluorogenic H-Leu-NHMec substrate, 1536-well (AID 1445); parameters: species or system Plasmodium falciparum 3D7, 3D7
[19] = molecular target: Procathepsin L (Homo sapiens, UniProt P07711)
[20] = molecular target: Aspartyl aminopeptidase (Plasmodium falciparum 3D7, UniProt Q8I2J3)

T2 sequence (P11940 whole entry): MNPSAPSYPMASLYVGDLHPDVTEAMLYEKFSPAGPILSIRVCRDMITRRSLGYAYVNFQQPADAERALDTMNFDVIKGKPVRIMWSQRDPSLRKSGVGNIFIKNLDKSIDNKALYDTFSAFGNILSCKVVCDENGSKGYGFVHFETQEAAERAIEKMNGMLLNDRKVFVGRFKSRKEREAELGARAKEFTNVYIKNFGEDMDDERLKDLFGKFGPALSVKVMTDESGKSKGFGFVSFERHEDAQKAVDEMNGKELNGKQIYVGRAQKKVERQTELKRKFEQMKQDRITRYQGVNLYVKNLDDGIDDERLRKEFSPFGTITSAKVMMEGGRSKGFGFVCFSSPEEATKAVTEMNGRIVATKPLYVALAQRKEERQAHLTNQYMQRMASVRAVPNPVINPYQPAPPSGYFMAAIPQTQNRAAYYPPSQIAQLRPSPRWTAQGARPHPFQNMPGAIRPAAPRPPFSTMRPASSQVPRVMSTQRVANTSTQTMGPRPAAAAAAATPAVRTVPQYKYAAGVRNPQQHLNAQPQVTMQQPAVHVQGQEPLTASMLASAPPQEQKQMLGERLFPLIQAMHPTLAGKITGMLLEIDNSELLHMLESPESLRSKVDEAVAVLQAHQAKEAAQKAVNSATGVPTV
Procathepsin L, sequence (P07711 whole entry): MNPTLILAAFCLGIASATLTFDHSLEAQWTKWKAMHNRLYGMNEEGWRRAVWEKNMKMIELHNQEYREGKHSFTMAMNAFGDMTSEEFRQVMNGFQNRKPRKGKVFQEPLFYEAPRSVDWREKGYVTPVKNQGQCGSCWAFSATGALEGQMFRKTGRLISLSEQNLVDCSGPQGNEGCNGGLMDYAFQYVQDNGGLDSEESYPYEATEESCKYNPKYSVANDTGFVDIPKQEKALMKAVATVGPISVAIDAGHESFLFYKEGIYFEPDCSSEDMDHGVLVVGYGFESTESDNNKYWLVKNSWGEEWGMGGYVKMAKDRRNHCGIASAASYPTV
Serine/threonine-protein phosphatase PP1-alpha catalytic subunit, sequence (P62136 whole entry): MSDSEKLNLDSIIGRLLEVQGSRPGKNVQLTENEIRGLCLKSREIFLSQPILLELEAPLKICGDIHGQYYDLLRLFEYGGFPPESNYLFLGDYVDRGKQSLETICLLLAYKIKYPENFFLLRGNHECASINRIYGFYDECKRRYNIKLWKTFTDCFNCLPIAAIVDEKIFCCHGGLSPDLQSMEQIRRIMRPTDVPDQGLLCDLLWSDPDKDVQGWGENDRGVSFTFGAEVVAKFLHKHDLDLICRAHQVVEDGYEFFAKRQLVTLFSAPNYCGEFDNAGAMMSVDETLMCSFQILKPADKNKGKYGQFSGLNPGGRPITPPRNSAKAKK
Genome polyprotein, sequence (P29990 2492-3391 limits assumed): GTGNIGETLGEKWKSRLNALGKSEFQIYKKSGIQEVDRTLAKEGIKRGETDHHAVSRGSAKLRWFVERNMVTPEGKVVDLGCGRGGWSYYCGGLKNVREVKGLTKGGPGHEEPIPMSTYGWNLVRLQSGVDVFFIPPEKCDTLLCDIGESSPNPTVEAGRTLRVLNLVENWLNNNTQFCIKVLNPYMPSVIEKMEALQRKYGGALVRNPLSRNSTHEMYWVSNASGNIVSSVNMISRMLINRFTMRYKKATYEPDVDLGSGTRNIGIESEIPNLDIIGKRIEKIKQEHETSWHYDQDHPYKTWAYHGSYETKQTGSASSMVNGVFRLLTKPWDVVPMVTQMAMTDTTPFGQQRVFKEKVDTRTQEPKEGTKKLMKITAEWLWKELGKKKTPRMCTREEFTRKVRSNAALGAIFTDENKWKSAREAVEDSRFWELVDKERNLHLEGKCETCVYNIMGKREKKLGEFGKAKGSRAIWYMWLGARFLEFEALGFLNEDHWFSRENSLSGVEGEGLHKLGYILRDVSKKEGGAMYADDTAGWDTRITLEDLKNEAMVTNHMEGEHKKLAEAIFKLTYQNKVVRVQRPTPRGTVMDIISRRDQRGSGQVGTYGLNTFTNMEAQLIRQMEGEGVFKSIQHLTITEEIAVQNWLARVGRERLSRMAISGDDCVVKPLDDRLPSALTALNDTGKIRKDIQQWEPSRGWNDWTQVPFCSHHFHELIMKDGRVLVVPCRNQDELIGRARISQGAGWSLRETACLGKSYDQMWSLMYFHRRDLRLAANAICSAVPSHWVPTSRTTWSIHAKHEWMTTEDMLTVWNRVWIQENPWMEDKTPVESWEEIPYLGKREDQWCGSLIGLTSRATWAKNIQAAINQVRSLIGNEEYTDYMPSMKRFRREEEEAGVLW
Transitional endoplasmic reticulum ATPase (Homo sapiens, UniProt P55072), sequence (P55072 whole entry): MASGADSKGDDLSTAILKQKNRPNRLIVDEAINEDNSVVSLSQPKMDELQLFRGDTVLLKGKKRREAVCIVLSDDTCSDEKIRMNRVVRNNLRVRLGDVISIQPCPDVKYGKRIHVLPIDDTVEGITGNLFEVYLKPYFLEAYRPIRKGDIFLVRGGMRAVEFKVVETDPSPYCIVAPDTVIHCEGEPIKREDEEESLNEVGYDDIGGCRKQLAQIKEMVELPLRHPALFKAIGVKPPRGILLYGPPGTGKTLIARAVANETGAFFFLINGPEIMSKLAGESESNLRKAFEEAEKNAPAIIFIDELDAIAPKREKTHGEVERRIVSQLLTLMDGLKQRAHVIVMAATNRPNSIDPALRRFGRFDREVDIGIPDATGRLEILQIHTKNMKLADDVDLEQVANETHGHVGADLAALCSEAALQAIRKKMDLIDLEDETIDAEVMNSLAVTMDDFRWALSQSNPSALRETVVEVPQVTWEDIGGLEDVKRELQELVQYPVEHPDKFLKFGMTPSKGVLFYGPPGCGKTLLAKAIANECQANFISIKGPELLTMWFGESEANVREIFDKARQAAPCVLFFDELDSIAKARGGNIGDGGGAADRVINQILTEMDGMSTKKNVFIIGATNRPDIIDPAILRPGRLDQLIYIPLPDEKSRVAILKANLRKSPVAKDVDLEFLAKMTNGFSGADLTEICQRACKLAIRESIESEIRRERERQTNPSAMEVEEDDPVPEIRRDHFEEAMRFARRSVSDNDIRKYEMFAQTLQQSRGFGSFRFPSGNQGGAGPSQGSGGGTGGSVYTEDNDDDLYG
Aminopeptidase N, sequence (O96935 whole entry): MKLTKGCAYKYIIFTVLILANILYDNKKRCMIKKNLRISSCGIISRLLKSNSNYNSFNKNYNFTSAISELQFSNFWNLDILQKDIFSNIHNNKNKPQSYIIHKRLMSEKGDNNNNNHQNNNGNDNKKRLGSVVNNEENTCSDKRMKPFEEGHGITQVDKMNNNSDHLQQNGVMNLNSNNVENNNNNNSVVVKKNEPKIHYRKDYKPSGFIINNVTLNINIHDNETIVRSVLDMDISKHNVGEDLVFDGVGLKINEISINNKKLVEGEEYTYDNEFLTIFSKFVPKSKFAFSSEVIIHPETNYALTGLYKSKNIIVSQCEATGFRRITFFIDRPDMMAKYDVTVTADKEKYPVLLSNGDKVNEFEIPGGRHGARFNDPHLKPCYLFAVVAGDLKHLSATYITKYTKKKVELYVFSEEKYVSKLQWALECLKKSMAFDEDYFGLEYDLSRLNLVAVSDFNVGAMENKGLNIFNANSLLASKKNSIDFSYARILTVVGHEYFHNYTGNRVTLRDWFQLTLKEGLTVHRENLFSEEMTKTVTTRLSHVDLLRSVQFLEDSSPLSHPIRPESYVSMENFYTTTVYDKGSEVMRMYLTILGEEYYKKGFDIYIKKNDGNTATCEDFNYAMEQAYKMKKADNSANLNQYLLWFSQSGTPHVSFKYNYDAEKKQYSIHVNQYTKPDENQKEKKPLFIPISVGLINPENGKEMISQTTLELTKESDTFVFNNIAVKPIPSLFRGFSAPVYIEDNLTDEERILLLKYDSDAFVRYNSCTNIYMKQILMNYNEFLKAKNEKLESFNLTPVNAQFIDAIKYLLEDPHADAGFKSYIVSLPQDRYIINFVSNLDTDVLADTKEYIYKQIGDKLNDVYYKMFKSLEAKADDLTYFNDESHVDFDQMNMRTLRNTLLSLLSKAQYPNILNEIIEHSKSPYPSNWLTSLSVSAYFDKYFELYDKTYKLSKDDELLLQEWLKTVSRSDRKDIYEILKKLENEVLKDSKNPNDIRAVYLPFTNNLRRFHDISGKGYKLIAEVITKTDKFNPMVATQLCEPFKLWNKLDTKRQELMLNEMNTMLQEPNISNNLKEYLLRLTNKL
Serine/threonine-protein phosphatase, sequence (Q9BPW0 whole entry): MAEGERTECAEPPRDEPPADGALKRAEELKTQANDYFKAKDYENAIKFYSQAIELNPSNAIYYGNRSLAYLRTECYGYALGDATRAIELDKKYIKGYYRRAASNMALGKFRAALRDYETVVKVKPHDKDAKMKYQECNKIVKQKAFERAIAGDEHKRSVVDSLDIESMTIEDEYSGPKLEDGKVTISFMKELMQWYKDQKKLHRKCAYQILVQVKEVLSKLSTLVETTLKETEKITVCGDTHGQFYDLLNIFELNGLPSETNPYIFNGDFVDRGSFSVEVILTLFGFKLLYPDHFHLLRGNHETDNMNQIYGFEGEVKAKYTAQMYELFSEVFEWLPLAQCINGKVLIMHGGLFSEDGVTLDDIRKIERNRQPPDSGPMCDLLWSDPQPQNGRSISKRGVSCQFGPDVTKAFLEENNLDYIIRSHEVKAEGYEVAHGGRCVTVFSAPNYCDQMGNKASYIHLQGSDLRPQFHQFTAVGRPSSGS

In the case of `Fc1ccccc1-c1nc(NCc2ccccc2)c2ccccc2n1`, the IC50 [1] is reported as > 50 µM (not active) and the IC50 [2] is reported as > 50 µM (not active).
In the case of `Cc1ccc(C)c(NC(=O)C(Sc2nc3ccccc3c(=O)n2CC(C)C)c2ccccc2)c1` (stereo not given), the EC50 [3] is reported as > 100 µM (not active), the IC50 [4] is reported as 36.3 µM (inactive) and the CC50 [5] is reported as 21.3 µM (active).
In the case of `O=C(NCC(c1cccnc1)N1CCN(c2ccccc2F)CC1)c1cccc(Cl)c1` (stereo not given), the IC50 [6] is reported as 0.597 µM (active).
With `CN1CCN(C(c2ccccn2)c2cc(Cl)c3cccnc3c2O)CC1` (stereo not given) the IC50 [7] was 47.6 µM (not active), the IC50 [8] was > 73.5 µM (inactive) and the IC50 [9] was 4.17 µM (active). For the same compound, the AC50 [10] was 6.54 µM (active), the CC50 [11] was 37.2 µM (active) and the EC50 [12] was 24.9 µM (active). The IC50 [13] was > 100 µM (active), the IC50 [14] was > 66 µM (inactive) and the IC50 [15] was > 66 µM (inactive). The EC50 [16] was 1.42 µM (active).
With `N#CC(c1ccc(Cl)nn1)c1ccccc1Cl` (stereo not given) the AC50 [17] was 0.944 µM (active).
In the case of `CC(C)CCNC(=O)CSc1nc2ccsc2c(=O)n1NC(=O)c1ccccc1`, the IC50 [18] is reported as 87.1 µM (active).
In the case of `CC(C)(C)c1ccc(O)c(/N=C/c2cc(Br)ccc2O)c1`, the IC50 [19] is reported as > 59.6 µM (not active) and the IC50 [20] is reported as 0.807 µM (active).

— ChEMBL document CHEMBL1201862, “PubChem BioAssay data set” (2004)
